Test results taken from ChEMBL document CHEMBL5442219.

Experiments:
Conditions in all cases: Compound concentration 10 µM
[1] = biological target: 5-hydroxytryptamine receptor 5A (Homo sapiens) (UniProt P47898)
Description: PDSP Primary Binding target: HTR5A - Compounds are tested at 10 uM concentration, plate are incubated at room temperature in the dark for 90 minutes. Reaction are stopped by vacuum filtration onto 0.3% polyethyleneimine soaked filter mats using Filtermate harvester. Scintilation cocktail is then melted onto microwave-dried filters on a hot plate and the radio activity is counted in Microbia counter.

[2] = biological target: T1, Alpha-2A adrenergic receptor (Homo sapiens) (UniProt P08913)
T1 sequence (whole entry): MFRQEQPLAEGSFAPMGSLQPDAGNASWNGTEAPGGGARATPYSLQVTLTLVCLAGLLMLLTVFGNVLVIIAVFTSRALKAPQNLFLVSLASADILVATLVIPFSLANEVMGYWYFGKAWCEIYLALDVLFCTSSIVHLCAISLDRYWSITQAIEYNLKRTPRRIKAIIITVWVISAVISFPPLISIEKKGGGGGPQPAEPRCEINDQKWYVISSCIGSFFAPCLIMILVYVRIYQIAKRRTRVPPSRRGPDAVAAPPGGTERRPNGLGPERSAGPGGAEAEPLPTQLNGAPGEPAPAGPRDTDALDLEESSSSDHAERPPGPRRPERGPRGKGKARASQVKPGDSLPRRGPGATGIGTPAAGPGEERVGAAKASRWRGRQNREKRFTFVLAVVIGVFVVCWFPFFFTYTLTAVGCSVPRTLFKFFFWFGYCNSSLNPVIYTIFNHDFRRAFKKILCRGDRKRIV
Description: PDSP Primary Binding target: ADRA2A - Compounds are tested at 10 uM concentration, plate are incubated at room temperature in the dark for 90 minutes. Reaction are stopped by vacuum filtration onto 0.3% polyethyleneimine soaked filter mats using Filtermate harvester. Scintilation cocktail is then melted onto microwave-dried filters on a hot plate and the radio activity is counted in Microbia counter.

[3] = biological target: T2, Muscarinic acetylcholine receptor M2 (Homo sapiens) (UniProt P08172)
T2 sequence (whole entry): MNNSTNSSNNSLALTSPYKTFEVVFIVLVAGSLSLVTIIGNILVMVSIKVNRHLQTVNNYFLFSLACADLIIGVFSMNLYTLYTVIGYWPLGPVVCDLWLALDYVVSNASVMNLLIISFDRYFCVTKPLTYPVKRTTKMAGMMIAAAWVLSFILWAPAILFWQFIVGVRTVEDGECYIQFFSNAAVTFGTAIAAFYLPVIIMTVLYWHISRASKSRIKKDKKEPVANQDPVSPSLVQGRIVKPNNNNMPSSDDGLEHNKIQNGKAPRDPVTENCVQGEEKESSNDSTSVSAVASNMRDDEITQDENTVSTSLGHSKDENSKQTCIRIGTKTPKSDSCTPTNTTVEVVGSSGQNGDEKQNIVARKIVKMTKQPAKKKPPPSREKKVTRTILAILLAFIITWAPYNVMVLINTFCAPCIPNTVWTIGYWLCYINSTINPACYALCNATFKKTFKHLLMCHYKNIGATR
Description: PDSP Primary Binding target: CHRM2 - Compounds are tested at 10 uM concentration, plate are incubated at room temperature in the dark for 90 minutes. Reaction are stopped by vacuum filtration onto 0.3% polyethyleneimine soaked filter mats using Filtermate harvester. Scintilation cocktail is then melted onto microwave-dried filters on a hot plate and the radio activity is counted in Microbia counter.

[4] = biological target: Muscarinic acetylcholine receptor M3 (Homo sapiens) (UniProt P20309)
Description: PDSP Primary Binding target: CHRM3 - Compounds are tested at 10 uM concentration, plate are incubated at room temperature in the dark for 90 minutes. Reaction are stopped by vacuum filtration onto 0.3% polyethyleneimine soaked filter mats using Filtermate harvester. Scintilation cocktail is then melted onto microwave-dried filters on a hot plate and the radio activity is counted in Microbia counter.

[5] = biological target: 5-hydroxytryptamine receptor 2B (Homo sapiens) (UniProt P41595)
Description: PDSP Primary Binding target: HTR2B - Compounds are tested at 10 uM concentration, plate are incubated at room temperature in the dark for 90 minutes. Reaction are stopped by vacuum filtration onto 0.3% polyethyleneimine soaked filter mats using Filtermate harvester. Scintilation cocktail is then melted onto microwave-dried filters on a hot plate and the radio activity is counted in Microbia counter.

[6] = biological target: 5-hydroxytryptamine receptor 1E (Homo sapiens) (UniProt P28566)
Description: PDSP Primary Binding target: HTR1E - Compounds are tested at 10 uM concentration, plate are incubated at room temperature in the dark for 90 minutes. Reaction are stopped by vacuum filtration onto 0.3% polyethyleneimine soaked filter mats using Filtermate harvester. Scintilation cocktail is then melted onto microwave-dried filters on a hot plate and the radio activity is counted in Microbia counter.

[7] = biological target: Sigma intracellular receptor 2 (Homo sapiens) (UniProt Q5BJF2)
Description: PDSP Primary Binding target: TMEM97 - Compounds are tested at 10 uM concentration, plate are incubated at room temperature in the dark for 90 minutes. Reaction are stopped by vacuum filtration onto 0.3% polyethyleneimine soaked filter mats using Filtermate harvester. Scintilation cocktail is then melted onto microwave-dried filters on a hot plate and the radio activity is counted in Microbia counter.

[8] = biological target: T3, Muscarinic acetylcholine receptor M1 (Homo sapiens) (UniProt P11229)
T3 sequence (whole entry): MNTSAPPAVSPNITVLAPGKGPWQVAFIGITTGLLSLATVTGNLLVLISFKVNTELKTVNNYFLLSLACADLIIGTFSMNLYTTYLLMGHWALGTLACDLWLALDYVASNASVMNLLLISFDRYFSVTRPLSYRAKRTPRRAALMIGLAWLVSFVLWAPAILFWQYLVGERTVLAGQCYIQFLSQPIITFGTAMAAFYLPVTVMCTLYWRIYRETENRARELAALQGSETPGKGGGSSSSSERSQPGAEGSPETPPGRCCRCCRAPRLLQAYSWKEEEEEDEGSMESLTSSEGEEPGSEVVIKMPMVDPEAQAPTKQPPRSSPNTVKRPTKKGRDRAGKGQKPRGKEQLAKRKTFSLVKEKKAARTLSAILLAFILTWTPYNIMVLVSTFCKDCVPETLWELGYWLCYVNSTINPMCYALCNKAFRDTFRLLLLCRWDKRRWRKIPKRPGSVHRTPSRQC
Description: PDSP Primary Binding target: CHRM1 - Compounds are tested at 10 uM concentration, plate are incubated at room temperature in the dark for 90 minutes. Reaction are stopped by vacuum filtration onto 0.3% polyethyleneimine soaked filter mats using Filtermate harvester. Scintilation cocktail is then melted onto microwave-dried filters on a hot plate and the radio activity is counted in Microbia counter.

[9] = biological target: 5-hydroxytryptamine receptor 1B (Homo sapiens) (UniProt P28222)
Description: PDSP Primary Binding target: HTR1B - Compounds are tested at 10 uM concentration, plate are incubated at room temperature in the dark for 90 minutes. Reaction are stopped by vacuum filtration onto 0.3% polyethyleneimine soaked filter mats using Filtermate harvester. Scintilation cocktail is then melted onto microwave-dried filters on a hot plate and the radio activity is counted in Microbia counter.

[10] = biological target: Beta-2 adrenergic receptor (Homo sapiens) (UniProt P07550)
Description: PDSP Primary Binding target: ADRB2 - Compounds are tested at 10 uM concentration, plate are incubated at room temperature in the dark for 90 minutes. Reaction are stopped by vacuum filtration onto 0.3% polyethyleneimine soaked filter mats using Filtermate harvester. Scintilation cocktail is then melted onto microwave-dried filters on a hot plate and the radio activity is counted in Microbia counter.

[11] = biological target: T4, D(4) dopamine receptor (Homo sapiens) (UniProt P21917)
T4 sequence (whole entry): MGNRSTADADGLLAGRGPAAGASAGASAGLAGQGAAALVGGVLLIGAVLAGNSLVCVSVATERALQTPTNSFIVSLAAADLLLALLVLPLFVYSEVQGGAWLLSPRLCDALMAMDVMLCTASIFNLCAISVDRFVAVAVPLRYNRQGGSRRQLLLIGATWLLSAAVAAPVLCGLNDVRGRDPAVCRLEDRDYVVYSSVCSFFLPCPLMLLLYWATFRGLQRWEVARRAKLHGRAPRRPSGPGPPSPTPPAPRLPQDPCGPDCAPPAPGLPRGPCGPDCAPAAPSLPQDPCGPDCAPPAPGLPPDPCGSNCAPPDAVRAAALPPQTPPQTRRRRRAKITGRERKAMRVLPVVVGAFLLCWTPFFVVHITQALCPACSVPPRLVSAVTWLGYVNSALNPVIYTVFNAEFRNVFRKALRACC
Description: PDSP Primary Binding target: DRD4 - Compounds are tested at 10 uM concentration, plate are incubated at room temperature in the dark for 90 minutes. Reaction are stopped by vacuum filtration onto 0.3% polyethyleneimine soaked filter mats using Filtermate harvester. Scintilation cocktail is then melted onto microwave-dried filters on a hot plate and the radio activity is counted in Microbia counter.

[12] = biological target: T5, Alpha-2C adrenergic receptor (Homo sapiens) (UniProt P18825)
T5 sequence (whole entry): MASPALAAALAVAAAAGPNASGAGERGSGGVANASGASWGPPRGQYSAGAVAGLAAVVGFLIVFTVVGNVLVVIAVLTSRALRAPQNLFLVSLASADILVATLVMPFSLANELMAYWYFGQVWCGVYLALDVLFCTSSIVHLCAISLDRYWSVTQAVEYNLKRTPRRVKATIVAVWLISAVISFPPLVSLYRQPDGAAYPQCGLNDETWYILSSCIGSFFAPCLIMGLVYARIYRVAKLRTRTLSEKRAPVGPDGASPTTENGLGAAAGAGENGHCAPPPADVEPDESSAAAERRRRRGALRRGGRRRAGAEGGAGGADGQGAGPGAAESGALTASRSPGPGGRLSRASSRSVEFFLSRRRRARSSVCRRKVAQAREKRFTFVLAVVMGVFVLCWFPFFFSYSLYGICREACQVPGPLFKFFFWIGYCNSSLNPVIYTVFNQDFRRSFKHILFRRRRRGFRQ
Description: PDSP Primary Binding target: ADRA2C - Compounds are tested at 10 uM concentration, plate are incubated at room temperature in the dark for 90 minutes. Reaction are stopped by vacuum filtration onto 0.3% polyethyleneimine soaked filter mats using Filtermate harvester. Scintilation cocktail is then melted onto microwave-dried filters on a hot plate and the radio activity is counted in Microbia counter.

[13] = biological target: Sodium-dependent serotonin transporter (Homo sapiens) (UniProt P31645)
Chain of Sodium-dependent serotonin transporter (Homo sapiens) (P31645 whole entry, looked up): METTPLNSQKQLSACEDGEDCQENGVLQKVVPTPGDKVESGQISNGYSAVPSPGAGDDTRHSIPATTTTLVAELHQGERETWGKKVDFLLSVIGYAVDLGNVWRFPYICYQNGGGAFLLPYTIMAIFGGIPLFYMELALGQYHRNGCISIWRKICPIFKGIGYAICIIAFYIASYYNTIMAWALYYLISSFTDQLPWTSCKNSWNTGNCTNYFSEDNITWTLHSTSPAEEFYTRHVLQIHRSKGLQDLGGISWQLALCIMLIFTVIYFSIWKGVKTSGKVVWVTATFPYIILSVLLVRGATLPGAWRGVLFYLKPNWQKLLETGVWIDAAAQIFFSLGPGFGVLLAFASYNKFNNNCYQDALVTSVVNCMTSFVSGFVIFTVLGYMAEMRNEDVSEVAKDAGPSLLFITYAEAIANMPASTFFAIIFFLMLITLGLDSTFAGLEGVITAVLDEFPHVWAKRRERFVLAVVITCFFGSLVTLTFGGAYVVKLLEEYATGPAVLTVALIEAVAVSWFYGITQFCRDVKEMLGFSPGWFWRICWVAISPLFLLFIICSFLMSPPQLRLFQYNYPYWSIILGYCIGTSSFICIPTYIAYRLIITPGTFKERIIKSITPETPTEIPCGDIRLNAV
Description: PDSP Primary Binding target: SLC6A4 - Compounds are tested at 10 uM concentration, plate are incubated at room temperature in the dark for 90 minutes. Reaction are stopped by vacuum filtration onto 0.3% polyethyleneimine soaked filter mats using Filtermate harvester. Scintilation cocktail is then melted onto microwave-dried filters on a hot plate and the radio activity is counted in Microbia counter.

Chain of 5-hydroxytryptamine receptor 1B (Homo sapiens) (P28222 whole entry): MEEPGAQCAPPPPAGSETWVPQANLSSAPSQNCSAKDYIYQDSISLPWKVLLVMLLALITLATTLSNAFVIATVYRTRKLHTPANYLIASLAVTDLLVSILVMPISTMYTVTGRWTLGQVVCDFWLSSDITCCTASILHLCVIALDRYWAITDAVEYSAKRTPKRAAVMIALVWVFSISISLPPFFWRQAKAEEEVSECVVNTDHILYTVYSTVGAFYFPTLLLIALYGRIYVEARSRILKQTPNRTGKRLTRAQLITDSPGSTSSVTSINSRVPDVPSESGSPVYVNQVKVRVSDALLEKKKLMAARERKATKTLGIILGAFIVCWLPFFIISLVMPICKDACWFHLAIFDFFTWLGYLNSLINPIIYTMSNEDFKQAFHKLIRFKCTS
Chain of Sigma intracellular receptor 2 (Homo sapiens) (Q5BJF2 whole entry): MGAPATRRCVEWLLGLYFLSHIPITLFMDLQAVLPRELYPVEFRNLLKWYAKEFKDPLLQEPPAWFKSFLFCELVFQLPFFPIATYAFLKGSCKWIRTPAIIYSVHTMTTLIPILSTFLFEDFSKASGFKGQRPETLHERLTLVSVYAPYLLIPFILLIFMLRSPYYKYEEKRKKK
Chain of 5-hydroxytryptamine receptor 1E (Homo sapiens) (P28566 whole entry): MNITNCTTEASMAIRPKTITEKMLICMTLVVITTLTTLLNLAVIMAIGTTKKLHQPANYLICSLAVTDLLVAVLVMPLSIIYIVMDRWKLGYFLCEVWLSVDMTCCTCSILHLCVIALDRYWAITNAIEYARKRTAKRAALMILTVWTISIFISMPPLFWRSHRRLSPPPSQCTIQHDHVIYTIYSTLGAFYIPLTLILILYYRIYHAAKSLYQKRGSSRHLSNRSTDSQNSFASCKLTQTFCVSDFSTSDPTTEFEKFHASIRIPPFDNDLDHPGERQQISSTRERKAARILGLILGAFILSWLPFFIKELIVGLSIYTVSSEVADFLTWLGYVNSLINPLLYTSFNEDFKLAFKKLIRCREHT
Chain of Beta-2 adrenergic receptor (Homo sapiens) (P07550 whole entry, looked up): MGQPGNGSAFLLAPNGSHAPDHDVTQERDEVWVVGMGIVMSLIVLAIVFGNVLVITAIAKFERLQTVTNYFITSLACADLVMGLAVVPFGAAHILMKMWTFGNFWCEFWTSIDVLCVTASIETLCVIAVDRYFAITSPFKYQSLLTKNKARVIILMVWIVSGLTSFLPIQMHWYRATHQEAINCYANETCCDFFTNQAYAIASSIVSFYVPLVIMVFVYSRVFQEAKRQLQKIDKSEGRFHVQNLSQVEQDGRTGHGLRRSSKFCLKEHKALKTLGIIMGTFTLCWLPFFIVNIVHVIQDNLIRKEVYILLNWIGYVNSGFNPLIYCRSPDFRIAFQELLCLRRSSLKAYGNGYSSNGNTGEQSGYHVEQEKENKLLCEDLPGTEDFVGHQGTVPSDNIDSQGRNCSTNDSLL
Chain of Muscarinic acetylcholine receptor M3 (Homo sapiens) (P20309 whole entry, looked up): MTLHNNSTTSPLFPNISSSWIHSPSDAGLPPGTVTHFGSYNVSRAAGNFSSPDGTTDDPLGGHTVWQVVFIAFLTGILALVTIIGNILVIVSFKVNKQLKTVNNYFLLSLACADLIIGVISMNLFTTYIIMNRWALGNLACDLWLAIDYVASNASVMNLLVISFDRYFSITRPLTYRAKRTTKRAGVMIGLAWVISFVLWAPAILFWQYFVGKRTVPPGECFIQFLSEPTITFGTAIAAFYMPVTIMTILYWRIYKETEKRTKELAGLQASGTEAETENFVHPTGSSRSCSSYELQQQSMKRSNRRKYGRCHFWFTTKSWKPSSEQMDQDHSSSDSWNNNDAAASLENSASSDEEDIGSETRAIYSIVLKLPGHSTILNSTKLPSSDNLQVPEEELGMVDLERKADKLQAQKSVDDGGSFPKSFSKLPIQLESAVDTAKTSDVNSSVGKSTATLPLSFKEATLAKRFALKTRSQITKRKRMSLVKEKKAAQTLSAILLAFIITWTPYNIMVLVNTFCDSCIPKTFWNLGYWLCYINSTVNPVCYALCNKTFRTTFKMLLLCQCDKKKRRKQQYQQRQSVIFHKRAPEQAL
Chain of 5-hydroxytryptamine receptor 5A (Homo sapiens) (P47898 whole entry): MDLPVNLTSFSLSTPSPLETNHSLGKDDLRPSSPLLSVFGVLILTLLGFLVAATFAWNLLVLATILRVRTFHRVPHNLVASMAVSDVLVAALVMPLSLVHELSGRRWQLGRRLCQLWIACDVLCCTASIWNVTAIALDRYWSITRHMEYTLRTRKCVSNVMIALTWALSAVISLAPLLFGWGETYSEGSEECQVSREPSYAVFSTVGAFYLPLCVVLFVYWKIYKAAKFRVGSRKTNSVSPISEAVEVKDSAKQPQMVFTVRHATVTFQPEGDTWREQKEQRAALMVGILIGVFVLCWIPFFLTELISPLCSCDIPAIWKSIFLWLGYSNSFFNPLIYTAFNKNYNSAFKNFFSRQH
Chain of 5-hydroxytryptamine receptor 2B (Homo sapiens) (P41595 whole entry): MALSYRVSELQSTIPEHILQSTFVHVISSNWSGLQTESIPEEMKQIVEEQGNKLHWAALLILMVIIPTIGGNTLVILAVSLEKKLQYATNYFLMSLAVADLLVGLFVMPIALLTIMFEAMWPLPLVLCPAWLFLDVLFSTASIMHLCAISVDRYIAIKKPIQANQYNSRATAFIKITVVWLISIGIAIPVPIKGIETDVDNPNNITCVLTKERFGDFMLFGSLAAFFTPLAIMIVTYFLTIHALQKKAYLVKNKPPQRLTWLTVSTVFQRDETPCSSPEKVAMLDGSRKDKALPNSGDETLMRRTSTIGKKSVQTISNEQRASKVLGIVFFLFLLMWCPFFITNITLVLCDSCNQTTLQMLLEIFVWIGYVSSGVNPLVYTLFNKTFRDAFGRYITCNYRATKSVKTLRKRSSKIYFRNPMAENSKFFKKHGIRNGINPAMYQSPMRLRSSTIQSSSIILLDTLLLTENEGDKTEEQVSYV

| Compound | inhibition [1] | inhibition [2] | inhibition [3] | inhibition [4] | inhibition [5] | inhibition [6] | inhibition [7] | inhibition [8] | inhibition [9] | inhibition [10] | inhibition [11] | inhibition [12] | inhibition [13] |
| --- | --- | --- | --- | --- | --- | --- | --- | --- | --- | --- | --- | --- | --- |
| OC[C@H]1O[C@@H](n2cnc3c(NC4CCCC4)ncnc32)[C@H](O)[C@@H]1O | -5.9% | -6.3% | 7.74% | -0.28% | 38.5% | -3.16% | 14.2% | 15.4% | 15.9% | -3.65% | 34% |  |  |
| NC[C@H](O)c1ccc(O)c(O)c1 |  | 61.9% | -6.81% |  | 24.8% | 1.24% | 24.6% | -6.89% | 10.7% | 16.9% | 46.9% | 79.4% |  |
| Cc1ccccc1N1CCN(S(=O)(=O)C[C@]23CC[C@H](C[C@@H]2NC(=O)[C@@H](N)CCS(C)(=O)=O)C3(C)C)CC1 | -3.77% | 27.8% |  |  | 31.7% | 19.7% | 85% |  | 18.8% | 13.7% | -6.27% | 14.7% | -9.42% |
| CC(C)Oc1ccccc1C(=O)Nc1ccccc1C(=O)Nc1cccc(S(=O)(=O)C(F)(F)F)c1 |  |  | -6.99% | 13.1% |  | -4.72% | -6.23% | -6.91% |  | -8.68% | 43% |  |  |
| O=C(O)Cn1c(C(=O)Nc2nc(-c3ccccc3Cl)cs2)cc2ccccc21 | 18.6% | 8.83% | 0.82% | 0.53% | 0.94% | 3.11% | 36.6% | 6.86% | 11.2% | -7.21% | -9.74% | 0.91% |  |
| CC(C)NCC(O)COc1cccc2[nH]ccc12 (configuration not stated) | 52.6% | 29% | -9.11% |  | 39.4% | 20% | 97.5% |  | 22% | 100% | 69.4% | 1.35% |  |
| Clc1ccc(CCCOCCCN2CCCCC2)cc1 | -0.39% | -7.75% | 34.5% | 44.5% | 37% | 17.3% | 98.7% | 24.5% | 12.1% | -7.56% | 21.5% | 49.4% |  |
| FC(F)(F)c1cccc(-c2noc(-c3cc(-c4ccccc4)c(C(F)(F)F)s3)n2)c1 | 18.8% | -2.79% | -7.48% | -5.11% | 10.1% | 10.4% |  | 21.5% | 1.92% |  | -0.65% | -0.68% |  |
